Measured values reported in the CheMixHub ionic liquid set.
± gives the uncertainty stated by the source.

Experiment: xn = mol fraction of the nth substance listed
Conditions: 101 kPa

CCCCCCCCCCCCCCCC[n+]1ccccc1.O=C([O-])C(O)c1ccccc1 + CC(C)[C@H](N)C(=O)O + O
electrical conductivity (303.15 K, x1 = 8.83e-06, x2 = 0): 0.005 ± 0.0011 S/m | electrical conductivity (303.15 K, x1 = 8.87e-06, x2 = 0.0009002): 0.0049 ± 0.001 S/m | electrical conductivity (303.15 K, x1 = 9.28e-06, x2 = 0.001799): 0.0058 ± 0.0011 S/m | electrical conductivity (303.15 K, x1 = 1.032e-05, x2 = 0.0009002): 0.0054 ± 0.001 S/m | electrical conductivity (303.15 K, x1 = 1.045e-05, x2 = 0): 0.0058 ± 0.0011 S/m | electrical conductivity (303.15 K, x1 = 1.074e-05, x2 = 0.001799): 0.0063 ± 0.001 S/m | electrical conductivity (303.15 K, x1 = 1.177e-05, x2 = 0.0009002): 0.0059 ± 0.001 S/m | electrical conductivity (303.15 K, x1 = 1.201e-05, x2 = 0.001799): 0.0068 ± 0.001 S/m | electrical conductivity (303.15 K, x1 = 1.207e-05, x2 = 0): 0.0064 ± 0.0011 S/m | electrical conductivity (303.15 K, x1 = 1.322e-05, x2 = 0.0009002): 0.0064 ± 0.001 S/m | electrical conductivity (303.15 K, x1 = 1.347e-05, x2 = 0.001799): 0.0073 ± 0.001 S/m | electrical conductivity (303.15 K, x1 = 1.351e-05, x2 = 0): 0.007 ± 0.0011 S/m | electrical conductivity (303.15 K, x1 = 1.431e-05, x2 = 0.0009002): 0.00678 ± 0.00091 S/m | electrical conductivity (303.15 K, x1 = 1.474e-05, x2 = 0.001799): 0.0077 ± 0.0011 S/m | electrical conductivity (303.15 K, x1 = 1.478e-05, x2 = 0): 0.0075 ± 0.0011 S/m | electrical conductivity (303.15 K, x1 = 1.557e-05, x2 = 0.0009002): 0.00717 ± 0.00096 S/m | electrical conductivity (303.15 K, x1 = 1.583e-05, x2 = 0.001799): 0.0081 ± 0.0011 S/m | electrical conductivity (303.15 K, x1 = 1.622e-05, x2 = 0): 0.008 ± 0.0011 S/m | electrical conductivity (303.15 K, x1 = 1.666e-05, x2 = 0.0009002): 0.0076 ± 0.001 S/m | electrical conductivity (303.15 K, x1 = 1.766e-05, x2 = 0): 0.0085 ± 0.0012 S/m | electrical conductivity (308.15 K, x1 = 9.1e-07, x2 = 0.0009002): 0.0013 ± 0.0012 S/m | electrical conductivity (308.15 K, x1 = 9.1e-07, x2 = 0.001799): 0.0019 ± 0.0012 S/m | electrical conductivity (308.15 K, x1 = 1.08e-06, x2 = 0): 0.00083 ± 0.0013 S/m | electrical conductivity (308.15 K, x1 = 1.98e-06, x2 = 0): 0.0014 ± 0.0014 S/m | electrical conductivity (308.15 K, x1 = 2e-06, x2 = 0.001799): 0.0025 ± 0.0012 S/m | electrical conductivity (308.15 K, x1 = 2.17e-06, x2 = 0.0009002): 0.0019 ± 0.0013 S/m | electrical conductivity (308.15 K, x1 = 2.88e-06, x2 = 0): 0.002 ± 0.0014 S/m | electrical conductivity (308.15 K, x1 = 3.09e-06, x2 = 0.001799): 0.0031 ± 0.0013 S/m | electrical conductivity (308.15 K, x1 = 3.26e-06, x2 = 0.0009002): 0.0025 ± 0.0012 S/m | electrical conductivity (308.15 K, x1 = 3.96e-06, x2 = 0): 0.0026 ± 0.0014 S/m | electrical conductivity (308.15 K, x1 = 4e-06, x2 = 0.001799): 0.0036 ± 0.0013 S/m | electrical conductivity (308.15 K, x1 = 4.53e-06, x2 = 0.0009002): 0.0032 ± 0.0012 S/m | electrical conductivity (308.15 K, x1 = 4.69e-06, x2 = 0): 0.0031 ± 0.0014 S/m | electrical conductivity (308.15 K, x1 = 5.1e-06, x2 = 0.001799): 0.0042 ± 0.0013 S/m | electrical conductivity (308.15 K, x1 = 5.95e-06, x2 = 0): 0.0038 ± 0.0013 S/m | electrical conductivity (308.15 K, x1 = 5.98e-06, x2 = 0.0009002): 0.004 ± 0.0012 S/m | electrical conductivity (308.15 K, x1 = 6.37e-06, x2 = 0.001799): 0.0049 ± 0.0013 S/m | electrical conductivity (308.15 K, x1 = 7.21e-06, x2 = 0): 0.0046 ± 0.0013 S/m | electrical conductivity (308.15 K, x1 = 7.42e-06, x2 = 0.0009002): 0.0047 ± 0.0012 S/m | electrical conductivity (308.15 K, x1 = 7.83e-06, x2 = 0.001799): 0.0057 ± 0.0013 S/m | electrical conductivity (308.15 K, x1 = 8.83e-06, x2 = 0): 0.0055 ± 0.0013 S/m | electrical conductivity (308.15 K, x1 = 8.87e-06, x2 = 0.0009002): 0.0054 ± 0.0011 S/m | electrical conductivity (308.15 K, x1 = 9.28e-06, x2 = 0.001799): 0.0064 ± 0.0012 S/m | electrical conductivity (308.15 K, x1 = 1.032e-05, x2 = 0.0009002): 0.0061 ± 0.0011 S/m | electrical conductivity (308.15 K, x1 = 1.045e-05, x2 = 0): 0.0065 ± 0.0012 S/m | electrical conductivity (308.15 K, x1 = 1.074e-05, x2 = 0.001799): 0.0071 ± 0.0012 S/m | electrical conductivity (308.15 K, x1 = 1.177e-05, x2 = 0.0009002): 0.0066 ± 0.0011 S/m | electrical conductivity (308.15 K, x1 = 1.201e-05, x2 = 0.001799): 0.0076 ± 0.0011 S/m | electrical conductivity (308.15 K, x1 = 1.207e-05, x2 = 0): 0.0071 ± 0.0012 S/m | electrical conductivity (308.15 K, x1 = 1.322e-05, x2 = 0.0009002): 0.0071 ± 0.0011 S/m | electrical conductivity (308.15 K, x1 = 1.347e-05, x2 = 0.001799): 0.0081 ± 0.0012 S/m | electrical conductivity (308.15 K, x1 = 1.351e-05, x2 = 0): 0.0077 ± 0.0012 S/m | electrical conductivity (308.15 K, x1 = 1.431e-05, x2 = 0.0009002): 0.0076 ± 0.001 S/m | electrical conductivity (308.15 K, x1 = 1.474e-05, x2 = 0.001799): 0.0086 ± 0.0012 S/m | electrical conductivity (308.15 K, x1 = 1.478e-05, x2 = 0): 0.0083 ± 0.0012 S/m | electrical conductivity (308.15 K, x1 = 1.557e-05, x2 = 0.0009002): 0.008 ± 0.0011 S/m | electrical conductivity (308.15 K, x1 = 1.583e-05, x2 = 0.001799): 0.009 ± 0.0012 S/m | electrical conductivity (308.15 K, x1 = 1.622e-05, x2 = 0): 0.0089 ± 0.0013 S/m | electrical conductivity (308.15 K, x1 = 1.666e-05, x2 = 0.0009002): 0.0084 ± 0.0012 S/m | electrical conductivity (308.15 K, x1 = 1.766e-05, x2 = 0): 0.0094 ± 0.0013 S/m | electrical conductivity (313.15 K, x1 = 9.1e-07, x2 = 0.0009002): 0.0014 ± 0.0013 S/m | electrical conductivity (313.15 K, x1 = 9.1e-07, x2 = 0.001799): 0.0021 ± 0.0013 S/m | electrical conductivity (313.15 K, x1 = 1.08e-06, x2 = 0): 0.0009 ± 0.0015 S/m | electrical conductivity (313.15 K, x1 = 1.98e-06, x2 = 0): 0.0016 ± 0.0015 S/m | electrical conductivity (313.15 K, x1 = 2e-06, x2 = 0.001799): 0.0028 ± 0.0013 S/m | electrical conductivity (313.15 K, x1 = 2.17e-06, x2 = 0.0009002): 0.0021 ± 0.0021 S/m | electrical conductivity (313.15 K, x1 = 2.88e-06, x2 = 0): 0.0022 ± 0.0015 S/m | electrical conductivity (313.15 K, x1 = 3.09e-06, x2 = 0.001799): 0.0034 ± 0.0014 S/m | electrical conductivity (313.15 K, x1 = 3.26e-06, x2 = 0.0009002): 0.0028 ± 0.0013 S/m | electrical conductivity (313.15 K, x1 = 3.96e-06, x2 = 0): 0.0029 ± 0.0015 S/m | electrical conductivity (313.15 K, x1 = 4e-06, x2 = 0.001799): 0.004 ± 0.0014 S/m | electrical conductivity (313.15 K, x1 = 4.53e-06, x2 = 0.0009002): 0.0035 ± 0.0013 S/m | electrical conductivity (313.15 K, x1 = 4.69e-06, x2 = 0): 0.0035 ± 0.0015 S/m | electrical conductivity (313.15 K, x1 = 5.1e-06, x2 = 0.001799): 0.0046 ± 0.0014 S/m | electrical conductivity (313.15 K, x1 = 5.95e-06, x2 = 0): 0.0042 ± 0.0015 S/m | electrical conductivity (313.15 K, x1 = 5.98e-06, x2 = 0.0009002): 0.0044 ± 0.0013 S/m | electrical conductivity (313.15 K, x1 = 6.37e-06, x2 = 0.001799): 0.0055 ± 0.0014 S/m | electrical conductivity (313.15 K, x1 = 7.21e-06, x2 = 0): 0.0051 ± 0.0015 S/m | electrical conductivity (313.15 K, x1 = 7.42e-06, x2 = 0.0009002): 0.0051 ± 0.0013 S/m | electrical conductivity (313.15 K, x1 = 7.83e-06, x2 = 0.001799): 0.0063 ± 0.0014 S/m | electrical conductivity (313.15 K, x1 = 8.83e-06, x2 = 0): 0.006 ± 0.0014 S/m | electrical conductivity (313.15 K, x1 = 8.87e-06, x2 = 0.0009002): 0.006 ± 0.0013 S/m | electrical conductivity (313.15 K, x1 = 9.28e-06, x2 = 0.001799): 0.0072 ± 0.0014 S/m | electrical conductivity (313.15 K, x1 = 1.032e-05, x2 = 0.0009002): 0.0067 ± 0.0013 S/m | electrical conductivity (313.15 K, x1 = 1.045e-05, x2 = 0): 0.0071 ± 0.0014 S/m | electrical conductivity (313.15 K, x1 = 1.074e-05, x2 = 0.001799): 0.0079 ± 0.0013 S/m | electrical conductivity (313.15 K, x1 = 1.177e-05, x2 = 0.0009002): 0.0074 ± 0.0013 S/m | electrical conductivity (313.15 K, x1 = 1.201e-05, x2 = 0.001799): 0.0085 ± 0.0013 S/m | electrical conductivity (313.15 K, x1 = 1.207e-05, x2 = 0): 0.0079 ± 0.0014 S/m | electrical conductivity (313.15 K, x1 = 1.322e-05, x2 = 0.0009002): 0.0079 ± 0.0013 S/m | electrical conductivity (313.15 K, x1 = 1.347e-05, x2 = 0.001799): 0.009 ± 0.0013 S/m | electrical conductivity (313.15 K, x1 = 1.351e-05, x2 = 0): 0.0085 ± 0.0013 S/m | electrical conductivity (313.15 K, x1 = 1.431e-05, x2 = 0.0009002): 0.0084 ± 0.0011 S/m | electrical conductivity (313.15 K, x1 = 1.474e-05, x2 = 0.001799): 0.0096 ± 0.0013 S/m | electrical conductivity (313.15 K, x1 = 1.478e-05, x2 = 0): 0.0092 ± 0.0013 S/m | electrical conductivity (313.15 K, x1 = 1.557e-05, x2 = 0.0009002): 0.0089 ± 0.0014 S/m | electrical conductivity (313.15 K, x1 = 1.583e-05, x2 = 0.001799): 0.01 ± 0.0014 S/m | electrical conductivity (313.15 K, x1 = 1.622e-05, x2 = 0): 0.0098 ± 0.0014 S/m | electrical conductivity (313.15 K, x1 = 1.666e-05, x2 = 0.0009002): 0.0094 ± 0.0015 S/m | electrical conductivity (313.15 K, x1 = 1.766e-05, x2 = 0): 0.0104 ± 0.0014 S/m
